Assay results reported in PubChem BioAssay (NCI).
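96-well plates; 48 h exposure; 5 concentrations. Endpoints by linear interpolation between flanking doses. Not reached: highest tested concentration assigned. Definition used: TGI = concentration required for complete inhibition of growth.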

Assays:
Experiment in all cases: growth of human tumour cells (NCI), 48 h
A498 renal = system: A498 renal
MCF7 breast = system: MCF7 breast
OVCAR-8 ovarian = system: OVCAR-8 ovarian
TK-10 renal = system: TK-10 renal
U251 CNS = system: U251 CNS
COLO 205 colon = system: COLO 205 colon
T-47D breast = system: T-47D breast
PC-3 prostate = system: PC-3 prostate
OVCAR-4 ovarian = system: OVCAR-4 ovarian
OVCAR-3 ovarian = system: OVCAR-3 ovarian
NCI-H23 lung = system: NCI-H23 lung
OVCAR-5 ovarian = system: OVCAR-5 ovarian
KM12 colon = system: KM12 colon
ACHN renal = system: ACHN renal
SN12C renal = system: SN12C renal
NCI-H460 lung = system: NCI-H460 lung
SK-MEL-2 melanoma = system: SK-MEL-2 melanoma
SK-OV-3 ovarian = system: SK-OV-3 ovarian
SF-295 CNS = system: SF-295 CNS
HOP-62 NSCLC = system: HOP-62 NSCLC
MDA-MB-231 breast = system: MDA-MB-231 breast
UO-31 renal = system: UO-31 renal
SK-MEL-28 melanoma = system: SK-MEL-28 melanoma
NCI/ADR-RES ovarian = system: NCI/ADR-RES ovarian
SW-620 colon = system: SW-620 colon
M14 melanoma = system: M14 melanoma
UACC-62 melanoma = system: UACC-62 melanoma
NCI-H522 lung = system: NCI-H522 lung
HCT-116 colon = system: HCT-116 colon
MDA-N = system: MDA-N
SK-MEL-5 melanoma = system: SK-MEL-5 melanoma
SF-539 CNS = system: SF-539 CNS
K-562 leukemia = system: K-562 leukemia
SNB-19 CNS = system: SNB-19 CNS
MDA-MB-435 = system: MDA-MB-435
CAKI-1 renal = system: CAKI-1 renal
RXF 393 renal = system: RXF 393 renal
SF-268 CNS = system: SF-268 CNS
A549 NSCLC = system: A549 NSCLC
DU-145 prostate = system: DU-145 prostate
HT29 colon = system: HT29 colon
786-0 renal = system: 786-0 renal
MOLT-4 leukemia = system: MOLT-4 leukemia
MALME-3M melanoma = system: MALME-3M melanoma
LOX IMVI melanoma = system: LOX IMVI melanoma
HS 578T breast = system: HS 578T breast
RPMI-8226 leukemia = system: RPMI-8226 leukemia
NCI-H226 lung = system: NCI-H226 lung
HOP-92 NSCLC = system: HOP-92 NSCLC
IGROV1 ovarian = system: IGROV1 ovarian
SNB-75 CNS = system: SNB-75 CNS
UACC-257 melanoma = system: UACC-257 melanoma
EKVX NSCLC = system: EKVX NSCLC
SR leukemia = system: SR leukemia
CCRF-CEM leukemia = system: CCRF-CEM leukemia
HCC-2998 colon = system: HCC-2998 colon
HCT-15 colon = system: HCT-15 colon
HL-60(TB) leukemia = system: HL-60(TB) leukemia

Measured: TGI

CNC(=O)CNC(=O)CCC(=O)OC
not listed: MALME-3M melanoma | LOX IMVI melanoma | HS 578T breast | RPMI-8226 leukemia | NCI-H226 lung | HOP-92 NSCLC | IGROV1 ovarian | SNB-75 CNS | UACC-257 melanoma | EKVX NSCLC | SR leukemia | CCRF-CEM leukemia | HCC-2998 colon | HCT-15 colon | HL-60(TB) leukemia
> 100 µM: all other assays above

O=C1Cc2c([nH]c3ccc(Cl)cc23)-c2ccccc2N1
not listed: PC-3 prostate | OVCAR-3 ovarian | OVCAR-5 ovarian | KM12 colon | SK-MEL-2 melanoma | HOP-62 NSCLC | SW-620 colon | SF-539 CNS | K-562 leukemia | CAKI-1 renal | RXF 393 renal | DU-145 prostate | HT29 colon | MOLT-4 leukemia | UACC-257 melanoma | EKVX NSCLC | SR leukemia | CCRF-CEM leukemia | HCC-2998 colon | HCT-15 colon | HL-60(TB) leukemia
> 100 µM: all other assays above

C=C1C(=O)[C@@]23CC[C@@H]4[C@@]5(C)CCC[C@@]4(OC5=O)C2(C)CC[C@]1(OC)C3 (stereo partly specified)
4.92 µM: SN12C renal
1.19 µM: LOX IMVI melanoma
2.44 µM: PC-3 prostate
21.8 µM: EKVX NSCLC
6.69 µM: HS 578T breast
3.22 µM: MDA-MB-435
3.18 µM: TK-10 renal
3.69 µM: OVCAR-5 ovarian
6.85 µM: KM12 colon
3.19 µM: UO-31 renal
3.66 µM: SK-MEL-28 melanoma
1.88 µM: HCT-116 colon
2.34 µM: OVCAR-3 ovarian
3.63 µM: SNB-19 CNS
18 µM: DU-145 prostate
3.41 µM: CAKI-1 renal
13.4 µM: SF-295 CNS
7.2 µM: SF-268 CNS
3.98 µM: ACHN renal
6.59 µM: NCI/ADR-RES ovarian
4.76 µM: IGROV1 ovarian
1.37 µM: HCC-2998 colon
3.07 µM: SNB-75 CNS
1.22 µM: MCF7 breast
3.23 µM: SW-620 colon
5.64 µM: COLO 205 colon
4 µM: OVCAR-8 ovarian
4.25 µM: M14 melanoma
12.7 µM: A549 NSCLC
3.21 µM: SF-539 CNS
1.98 µM: MOLT-4 leukemia
1.46 µM: SR leukemia
1.17 µM: 786-0 renal
3.39 µM: SK-MEL-5 melanoma
4.6 µM: T-47D breast
2.02 µM: MDA-N
3.81 µM: UACC-257 melanoma
2.36 µM: NCI-H522 lung
5.07 µM: NCI-H23 lung
1.24 µM: K-562 leukemia
0.436 µM: CCRF-CEM leukemia
2.58 µM: SK-MEL-2 melanoma
0.864 µM: RPMI-8226 leukemia
6.92 µM: NCI-H460 lung
4.56 µM: HOP-62 NSCLC

CSC(N)=Nc1cccc2ccccc12
not listed: OVCAR-5 ovarian | HS 578T breast
> 10 µM: all other assays above
